{"source": "patent US20100056544A1", "about": "“Salts with CRTH2 Antagonist Activity” (Oxagen Limited, priority 2007, published 2010)", "key": {"[1]": {"details": "cited from earlier work; for pKa of base: Table 5; for pKa 1: pKa value of base, Tables 2-4"}, "[2]": {"assay": "Solubility of the salts in water determined by HPLC, with pH of the filtered mixtures", "details": "for Solubility: HPLC grade water, stirred 18 hours at 15 to 25° C., filtered, HPLC"}, "[3]": {"assay": "basic solubility screen of Compound 1 free acid in solvents", "format": "physicochemical", "details": "for Solution Yes/No 20 vol R.T.: 50 mg, stirred at 15 to 25° C."}, "[4]": {"details": "pH of the filtered mixtures in water"}}, "note": "Read-outs that look alike come from different tables or passages of the source.", "data": [{"compound": "OCCN1CCCC1", "note": "[1-(2-Hydroxyethyl)pyrrolidine]", "values": [{"measurement": "pKa of base", "setting": "[1]", "result": 9.4}, {"measurement": "pKa 1", "setting": "[1]", "result": 9.4}]}, {"compound": "OCCN1CCOCC1", "note": "[4-(2-Hydroxyethyl)morpholine]", "values": [{"measurement": "pKa of base", "setting": "[1]", "result": 7.4}, {"measurement": "pKa 1", "setting": "[1]", "result": 7.4}]}, {"compound": "Cc1c(Cc2ccc3ccccc3n2)c2cc(F)ccc2n1CC(=O)O", "note": "[Ammonium, (5-fluoro-2-methyl-3-quinolin-2-ylmethyl-indol-1-yl)acetic acid]", "values": [{"measurement": "pH", "setting": "[2]", "result": 8}, {"measurement": "Solubility", "setting": "[2]", "result": 4.98, "unit": "mg/mL"}]}, {"compound": "C[N+](C)(C)CC(=O)O", "note": "[Betaine]", "values": [{"measurement": "pKa of base", "setting": "[1]", "result": 12.2}]}, {"compound": "C[N+](C)(C)CCO", "note": "[Choline]", "values": [{"measurement": "pKa of base", "setting": "[1]", "result": ">11"}, {"measurement": "pKa 1", "setting": "[1]", "result": ">11"}]}, {"compound": "Cc1c(Cc2ccc3ccccc3n2)c2cc(F)ccc2n1CC(=O)O", "note": "[Compound 1, (5-fluoro-2-methyl-3-quinolin-2-ylmethyl-indol-1-yl)acetic acid]", "values": [{"measurement": "solubility in NMP (50 mg retained in 20 vol)", "setting": "[3]; NMP at 15 to 25° C. after obtaining a solution at 100° C.", "result": "≥ 50", "unit": "mg per ml"}, {"measurement": "Solution Yes/No 20 vol reflux", "setting": "[3]; solvent Acetone", "result": "No"}, {"measurement": "Solution Yes/No 40 vol reflux", "setting": "[3]; solvent Acetone", "result": "No"}, {"measurement": "Solution on cooling to R.T.", "setting": "[3]; solvent Acetone", "result": "No"}, {"measurement": "Solution Yes/No 20 vol R.T.", "setting": "[3]; solvent Acetone", "result": "No"}, {"measurement": "Solution Yes/No 20 vol reflux", "setting": "[3]; solvent Acetonitrile", "result": "No"}, {"measurement": "Solution Yes/No 40 vol reflux", "setting": "[3]; solvent Acetonitrile", "result": "No"}, {"measurement": "Solution on cooling to R.T.", "setting": "[3]; solvent Acetonitrile", "result": "No"}, {"measurement": "Solution Yes/No 20 vol R.T.", "setting": "[3]; solvent Acetonitrile", "result": "No"}, {"measurement": "Solution Yes/No 20 vol reflux", "setting": "[3]; solvent Chloroform", "result": "No"}, {"measurement": "Solution Yes/No 40 vol reflux", "setting": "[3]; solvent Chloroform", "result": "No"}, {"measurement": "Solution on cooling to R.T.", "setting": "[3]; solvent Chloroform", "result": "No"}, {"measurement": "Solution Yes/No 20 vol R.T.", "setting": "[3]; solvent Chloroform", "result": "No"}, {"measurement": "Solution on cooling to R.T.", "setting": "[3]; solvent DMF", "result": "No"}, {"measurement": "Solution Yes/No 20 vol R.T.", "setting": "[3]; solvent DMF", "result": "No"}, {"measurement": "Solution Yes/No 20 vol reflux", "setting": "[3]; solvent DMF, heated to 100° C.", "result": "No"}, {"measurement": "Solution Yes/No 40 vol reflux", "setting": "[3]; solvent DMF, heated to 100° C.", "result": "Yes"}, {"measurement": "Solution on cooling to R.T.", "setting": "[3]; solvent DMSO", "result": "No"}, {"measurement": "Solution Yes/No 20 vol R.T.", "setting": "[3]; solvent DMSO", "result": "No"}, {"measurement": "Solution Yes/No 20 vol reflux", "setting": "[3]; solvent DMSO, heated to 100° C.", "result": "Yes"}, {"measurement": "Solution Yes/No 20 vol reflux", "setting": "[3]; solvent Ethanol", "result": "No"}, {"measurement": "Solution Yes/No 40 vol reflux", "setting": "[3]; solvent Ethanol", "result": "No"}, {"measurement": "Solution on cooling to R.T.", "setting": "[3]; solvent Ethanol", "result": "No"}, {"measurement": "Solution Yes/No 20 vol R.T.", "setting": "[3]; solvent Ethanol", "result": "No"}, {"measurement": "Solution Yes/No 20 vol reflux", "setting": "[3]; solvent Ethyl acetate", "result": "No"}, {"measurement": "Solution Yes/No 40 vol reflux", "setting": "[3]; solvent Ethyl acetate", "result": "No"}, {"measurement": "Solution on cooling to R.T.", "setting": "[3]; solvent Ethyl acetate", "result": "No"}, {"measurement": "Solution Yes/No 20 vol R.T.", "setting": "[3]; solvent Ethyl acetate", "result": "No"}, {"measurement": "Solution Yes/No 20 vol reflux", "setting": "[3]; solvent Heptanes", "result": "No"}, {"measurement": "Solution Yes/No 40 vol reflux", "setting": "[3]; solvent Heptanes", "result": "No"}, {"measurement": "Solution on cooling to R.T.", "setting": "[3]; solvent Heptanes", "result": "No"}, {"measurement": "Solution Yes/No 20 vol R.T.", "setting": "[3]; solvent Heptanes", "result": "No"}, {"measurement": "Solution Yes/No 20 vol reflux", "setting": "[3]; solvent IPA", "result": "No"}, {"measurement": "Solution Yes/No 40 vol reflux", "setting": "[3]; solvent IPA", "result": "No"}, {"measurement": "Solution on cooling to R.T.", "setting": "[3]; solvent IPA", "result": "No"}, {"measurement": "Solution Yes/No 20 vol R.T.", "setting": "[3]; solvent IPA", "result": "No"}, {"measurement": "Solution Yes/No 20 vol reflux", "setting": "[3]; solvent Methanol", "result": "No"}, {"measurement": "Solution Yes/No 40 vol reflux", "setting": "[3]; solvent Methanol", "result": "No"}, {"measurement": "Solution on cooling to R.T.", "setting": "[3]; solvent Methanol", "result": "No"}, {"measurement": "Solution Yes/No 20 vol R.T.", "setting": "[3]; solvent Methanol", "result": "No"}, {"measurement": "Solution on cooling to R.T.", "setting": "[3]; solvent NMP", "result": "Yes"}, {"measurement": "Solution Yes/No 20 vol R.T.", "setting": "[3]; solvent NMP", "result": "No"}, {"measurement": "Solution Yes/No 20 vol reflux", "setting": "[3]; solvent NMP, heated to 100° C.", "result": "Yes"}, {"measurement": "Solution Yes/No 20 vol reflux", "setting": "[3]; solvent TBME", "result": "No"}, {"measurement": "Solution Yes/No 40 vol reflux", "setting": "[3]; solvent TBME", "result": "No"}, {"measurement": "Solution on cooling to R.T.", "setting": "[3]; solvent TBME", "result": "No"}, {"measurement": "Solution Yes/No 20 vol R.T.", "setting": "[3]; solvent TBME", "result": "No"}, {"measurement": "Solution Yes/No 20 vol reflux", "setting": "[3]; solvent Toluene", "result": "No"}, {"measurement": "Solution Yes/No 40 vol reflux", "setting": "[3]; solvent Toluene", "result": "No"}, {"measurement": "Solution on cooling to R.T.", "setting": "[3]; solvent Toluene", "result": "No"}, {"measurement": "Solution Yes/No 20 vol R.T.", "setting": "[3]; solvent Toluene", "result": "No"}, {"measurement": "Solution Yes/No 20 vol reflux", "setting": "[3]; solvent Water", "result": "No"}, {"measurement": "Solution Yes/No 40 vol reflux", "setting": "[3]; solvent Water", "result": "No"}, {"measurement": "Solution on cooling to R.T.", "setting": "[3]; solvent Water", "result": "No"}, {"measurement": "Solution Yes/No 20 vol R.T.", "setting": "[3]; solvent Water", "result": "No"}, {"measurement": "Solubility", "setting": "[3]; variety of solvents (Table 1), organic solvent or mixture, thermodynamic from solid", "result": "< 25", "unit": "mg/mL"}, {"measurement": "Solubility", "setting": "[2]", "result": 0.05, "unit": "mg/mL"}, {"measurement": "pH", "setting": "[2]; [4]", "result": 7}]}, {"compound": "c1c[nH]cn1", "note": "[Imidazole]", "values": [{"measurement": "pKa of base", "setting": "[1]", "result": 7}, {"measurement": "pKa 1", "setting": "[1]", "result": 7}]}, {"compound": "CNC[C@H](O)[C@@H](O)[C@H](O)[C@H](O)CO", "note": "[N-methyl Glucamine]", "values": [{"measurement": "pKa of base", "setting": "[1]", "result": 8}]}, {"compound": "Cc1c(Cc2ccc3ccccc3n2)c2cc(F)ccc2n1CC(=O)O", "note": "[Potassium, (5-fluoro-2-methyl-3-quinolin-2-ylmethyl-indol-1-yl)acetic acid]", "values": [{"measurement": "pKa of base", "setting": "[1]", "result": 14.0}, {"measurement": "Solubility", "setting": "[2]", "result": 32.36, "unit": "mg/mL"}, {"measurement": "pH", "setting": "[2]; [4]", "result": 12}, {"measurement": "pH", "setting": "[2]; pH of the filtered mixtures in water, listed as potassium", "result": 12}]}, {"compound": "Cc1c(Cc2ccc3ccccc3n2)c2cc(F)ccc2n1CC(=O)O", "note": "[Sodium, (5-fluoro-2-methyl-3-quinolin-2-ylmethyl-indol-1-yl)acetic acid]", "values": [{"measurement": "pKa of base", "setting": "[1]", "result": 14.0}, {"measurement": "Solubility", "setting": "[2]", "result": 84.28, "unit": "mg/mL"}, {"measurement": "pH", "setting": "[2]; [4]", "result": 9}, {"measurement": "solubility in water compared (in words)", "setting": "[2]; water", "result": "most soluble"}]}, {"compound": "Cc1c(Cc2ccc3ccccc3n2)c2cc(F)ccc2n1CC(=O)O", "note": "[Tris, (5-fluoro-2-methyl-3-quinolin-2-ylmethyl-indol-1-yl)acetic acid]", "values": [{"measurement": "pKa of base", "setting": "[1]", "result": 8}, {"measurement": "Solubility", "setting": "[2]", "result": 3.26, "unit": "mg/mL"}, {"measurement": "pH", "setting": "[2]; [4]", "result": 9}]}, {"compound": "Deanol", "values": [{"measurement": "pKa of base", "setting": "[1]", "result": 8.8}, {"measurement": "pKa 1", "setting": "[1]", "result": 8.8}]}]}
